In US7235584B2, “Non-psychotropic cannabinoids” (Pharmos Corporation, priority 2000, dated 2007):

Key:
transient MCAo in rats = assay: Transient middle cerebral artery occlusion (MCAo), infarct size evaluation; assay type: in vivo
Text: The middle cerebral artery is the cerebral blood vessel most susceptible to stroke in humans. In animals, coagulation, permanent ligation or permanent placement of an occluding thread ink the artery produces a permanent focal stroke affecting the MCA territory. Transient ligation or occlusion results in transient focal stroke. Both transient and permanent focal strokes result in varying degrees of edema and infarction in the affected brain regions. The ability of compounds to reduce the volumes of edema and infarction is considered a measure of their potential as anti-stroke treatment.
• a. Male rats (8/treatment group) 320–380 gr. (Harlan Israel). • b. Halothane (Rhone Poulenc France) • c. Pentobarbitone (Pental Veterinary, CTS Israel). • d. Poly-L-Lysine (Sigma, USA). • e. Silk suture material 3-0 and 4-0. • f. Nylon (Polyamid) suture material 3-0. Four cm pieces were cut and positioned in a solution of 1% Poly-L-Lysine for 1 minute and dried in an oven (60 ° C.) for 60 minutes. The tip of each piece was rounded under a flame. • g. Saline (Teva Medical). • h. Blank cremophor ethanol cosolvent (Pharmos). • i. Dexanabinol in cremophor ethanol cosolvent 50 mg/ml. (Both Dexanabinol and its vehicle were diluted in saline prior to drug administration. • j. Analogs PRS-211,092, PRS-211,095, PRS-211,128 PRS-211,132 and PRS-211,220 in cremophor ethanol cosolvent, 50 mg/ml. • k. The analogs were diluted in saline prior to drug administration. Methods Transient MCAo
a. Surgical details of the MCAO method used for testing dexanabinol analogs, are presented in Belayev, et al., (Belayev, Busto, Weizhao, and Ginsberg, Stroke 26:2313–2319, 1995) which is incorporated herein in its entirety by reference.
b. Two hours after the start of MCAo, the animals were reanesthetized with halothane, the neck wound was re-opened and the nylon thread pulled out of the Internal carotid artery (ICA). The skin wound was then closed with 3-0 silk suture material and the animals allowed to recover from the anesthesia.
c. Three sets of animals were tested. In the first test immediately (2+0 hours) before thread removal the animals were injected IV with either analogs PRS 211,095, PRS 211,128, PRS 211,132, or Dexanabinol (PRS 211,007) each at a dosage of 5 mg/kg. One group of animals was treated with 5mi/kg vehicle alone. In another group, the animals subjected to “sham” operation, the suture was passed into the ICA, as described above, but immediately withdrawn. […] Laser Doppler Flow (LDF) determined the success of MCAo—a drop of more then 50% in cerebral blood flow was considered as a sign of successful MCAO. […]
A detailed investigation of neurological performance was carried out on the first, third and the 7th day after the MCAo. […] Animals were scored according to their performance: […]

[1] = tested on: rat model of closed head injury; assay: Closed head injury (head trauma) in rats: cerebral edema and Neurological Severity Score; assay type: in vivo
Text: Severe head injury is associated with high mortality and severe neurological impairment. Animals subjected to head trauma in a controlled fashion serve as models in which to test drugs of therapeutic potential. Test compounds can be evaluated both for improved clinical outcome and for reduction of edema induced by closed head injury. The ability of compounds to reduce the severity of neurological symptoms and to reduce brain edema is considered a measure of their potency in reducing brain damage.
The cerebroprotective effect of PRS-211 compounds was assessed in a model of head trauma (HT) in rats. […] The clinical status of the rats was evaluated 1, 24 and 48 hours after injury along with measuring the extent of cerebral edema. The neurological deficit, assessed by a set of criteria termed the Neurological Severity Score (NSS), is maximal at 1 hour after the initiation of head trauma. […]
The model was described in detail by Shapira et al., Crit. […] During the recovery period, the clinical status was evaluated by a set of criteria (NSS).
Trauma induced a significant decrease in specific gravity (SG) of brain tissue and increase in water content following head injury. […] Tissue pieces (20 mg each) were placed on top of the column and the SG calculated from the equilibrium position in the column, using a standard curve. […]

## CCCCCCC(C)(C)c1cc(O)c2c(c1)OC(C)(C)C1CC=C(Cn3ccnc3)CC21.Cl (single isomer, unassigned; (+)) [211,095-000, (+)-(3S ,4S )-6,6-Dimethyl-(1,1-dimethylheptyl)-1-hydroxy-9-(imidazolomethyl)-6a,7,10,10a-tetrahydro-6H-dibenzo[b,d]pyran]
Transient MCAo in rats; posture and flexion reflex, days 1, 3, 7 after MCAo
  Behavioral/neurological outcome: fewer neurological deficits and recovered faster
Transient MCAo in rats; transient MCAo, 5 mg/kg IV at 2+0 hours
  Mortality rate: No mortality
Transient MCAo in rats; transient MCAo, one week after the ischemic insult
  reduction of infarct size: 60%
[1]; given 30 min before, immediately after, or 1 and 2 hours after HT
  edema formation and BBB disruption: significantly reduces edema formation and BBB disruption
[1]; one dose of 5 mg/kg given 1 hour after the impact
  edema and clinical outcome 24 hours after HT: effectively reduced edema and improved the clinical outcome
